Consider six molecules from US9617304B2, “Pharmaceutical composition containing an endocytic motif and protein transduction domains for preventing or treating cancer” (Korea Research Institute Of Bioscience And Biotechnology, priority 2011, dated 2017).

In one experiment the test system is Tac/3S chimeric protein. Description: Endocytosis of Tac/3S chimeric protein in COS-7 cells after pretreatment with inhibitors. The experiment is classed as cell-based. The note with it: for endocytosis of Tac/3S chimeric protein: COS-7, 100 μg/ml ConA, 80 μM Dynasore, 1 μM Go6976, 1 μM K252a, 1 μM Vinblastine, 30 minutes pretreatment. The protocol:
Each of plasmid DNAs encoding Tac chimeric proteins illustrated in FIG. 2 was expressed in COS-7 cell line to induce endocytosis. To quantify endocytosis percentage, the following method was used. First, plasmid DNA was transfected into COS-7 cell line, and next day, cells were suspended in DMED supplemented with 10% FBS, and seeded onto an 8-well slide glass (Thermo, 154534) to 50% confluency. Next day, to block endocytosis, cells were transferred at 4° C. and left for 30 minutes. Anti-Tac (BD BIOSCIENCES, 347640) antibody was diluted in DMEM supplemented with 10% FBS at a ratio of 1:10, and treated at 4° C. for 30 minutes. The cells were washed with medium three times. To induce endocytosis again, the cells were transferred at 5% CO2 and 37° C., and left for different time periods. The cells were fixed in 4% paraformaldehyde for 45 minutes at room temperature. To detect cell surface anti-Tac antibody, anti-mouse IgG-ALEXA FLUOR 488 (INVITROGEN, A-11001) was diluted with PBS containing 3% normal goat serum (Vector, S-1000) at a ratio of 1:500, and treated at room temperature for 1 hour. Then, the cells were washed with PBST for 5 minutes three times. For permeablization and blocking, the cells were treated with PBST containing 3% normal goat serum at room temperature for 1 hour. Next, to detect intracellular Tac, anti-mouse IgG-ALEXA FLUOR 568 (INVITROGEN, A11061) was diluted with PBST containing 3% normal goat serum at a ratio of 1:500, and treated at room temperature for 1 hour. The cells were washed with PBST three times, and mounted in Mounting Medium with DAPI (Vector, H-1200). Next day, the sample was examined by fluorescence microscopy (Olympus IX2-UCB). For treatment of inhibitors, 100 μg/ml ConA (SIGMA, C0412), 80 μM Dynasore (SIGMA, D7693), 1 μM Go6976 (CALBIOCHEM, 365250), 1 μM K252a (INVITROGEN, PHZ1131) and 1 μM Vinblastine (SIGMA, V1377) were pretreated at 5% CO2 and 37° C. for 30 minutes, before endocytosis assay.

The next experiment has as its system COS-7 cells. Description: Endocytosis of Tac chimeric proteins expressed in COS-7 cells, fluorescence microscopy. The experiment is classed as cell-based.

As for `O=C(N/N=C/c1ccc(O)c(O)c1)c1cc2ccccc2cc1O` [Dynasore], the “endocytosis of Tac/3S chimeric protein” value in the experiment on Tac/3S chimeric protein is given as “inhibited”. For `Cn1c2ccccc2c2c3c(c4c5ccccc5n(CCC#N)c4c21)CNC3=O` [Go6976], the “endocytosis of Tac/3S chimeric protein” value in the experiment on Tac/3S chimeric protein was “inhibited”. Still for that read-out and setting: the value for `COC(=O)[C@@]1(O)C[C@H]2O[C@]1(C)n1c3ccccc3c3c4c(c5c6ccccc6n2c5c31)C(=O)NC4` [K252a] was “not inhibited”. In the case of `CC[C@]1(O)C[C@@H]2CN(CCc3c([nH]c4ccccc34)[C@@](C(=O)OC)(c3cc4c(cc3OC)N(C)[C@H]3[C@@](O)(C(=O)OC)[C@H](OC(C)=O)[C@]5(CC)C=CCN6CC[C@]43[C@@H]65)C2)C1` [Vinblastine], the “transportation of Tac/3S protein to the perinuclear region” value in the experiment on Tac/3S chimeric protein (COS-7, 1 μM Vinblastine) is recorded as “blocked”. In the experiment with Tac/3S chimeric protein, the “endocytosis of Tac/3S chimeric protein” value was “not inhibited”. Concannavalin A [ConA]: the “endocytosis of Tac/3S chimeric protein” value in the experiment on Tac/3S chimeric protein is recorded as “inhibited”.

B1: Tac/3S: fusion protein of Tac and 3S polypeptide (protein)
chain: ELCDDDPPEIPHATFKAMAYKEGTMLNCECKRGFRRIKSGSLYMLCTGNSSHSSWDNQCQCTSSATRNTTKQVTPQPEEQKERKTTEMQSPMQPVDQASLPGHCREPPPWENEATERIYHFVVGQMVYYQCVQGYRALHRGPAESVCKMTHGKTRWTQPQLICTGEMETSQFPGEEKPQASPEGRPESETSCLVTTTDFQIQTEMAATMETSIFTTEYQKCVAPYPSLLSSEDNA
Turning to B1, in the experiment on COS-7 cells, the “subcellular localization (colocalization test)” value is “partially merged with ER tracker”.
